Activity calls are given as the source filed them. No cut-off for these calls is given here.
Tests used:
[1] = test system: MCF7; assay: Antiproliferative activity against human MCF7 cells incubated for 48 hrs; assay type: functional, cell-based; settings: MCF7, 48 h
[2] = test system: HCT-116; assay: Antiproliferative activity against human HCT116 cells incubated for 48 hrs; assay type: functional, cell-based; settings: HCT-116, 48 h
[3] = test system: NCI-H460; assay: Antiproliferative activity against human NCI-H460 cells incubated for 48 hrs; assay type: functional, cell-based; settings: NCI-H460, 48 h
[4] = test system: U-87 MG; assay: Antiproliferative activity against human U87MG cells incubated for 48 hrs; assay type: functional, cell-based, U-87MG ATCC
[5] = test system: NCI-H460; assay: Anti-OXPHOS activity in human NCI-H460 cells assessed as inhibition of mitochondrial oxidative phosphorylation by seahorse XFe96 analyser based assay; settings: Mitochondria
[6] = test system: NCI-H460; assay: Anti-OXPHOS activity in human NCI-H460 cells assessed as inhibition of oxygen consumption rate at 4 uM incubated for 1 hr by seahorse XFe96 analyser based assay relative to control
[7] = test system: NCI-H460; assay: Antiproliferative activity against human NCI-H460 cells assessed as inhibition of cell growth at 32 uM incubated for 3 hrs; assay type: functional, cell-based
[8] = test system: NCI-H460; assay: Anti-OXPHOS activity in human NCI-H460 cells assessed as inhibition of oxygen consumption rate at 8 uM by seahorse XFe96 analyser based assay
[9] = test system: NCI-H460; assay: Induction of apoptosis in human NCI-H460 cells assessed as viable cells at 2 uM by Annexin V/PI staining based flow cytometric analysis (reference value: 95.3%); assay type: functional; settings: read-out: Activity
[10] = test system: NCI-H460; assay: Induction of apoptosis in human NCI-H460 cells assessed as early apoptotic cells at 2 uM by Annexin V/PI staining based flow cytometric analysis (reference value: […]); assay type: functional
[11] = test system: NCI-H460; assay: Induction of apoptosis in human NCI-H460 cells assessed as late apoptotic cells at 2 uM by Annexin V/PI staining based flow cytometric analysis (reference value: 1.17%); assay type: functional
[12] = test system: NCI-H460; assay: Induction of apoptosis in human NCI-H460 cells assessed as necrotic cells at 2 uM by Annexin V/PI staining based flow cytometric analysis (reference value: 2.75%); assay type: functional
[13] = test system: NCI-H460; assay: Induction of apoptosis in human NCI-H460 cells assessed as viable cells at 4 uM by Annexin V/PI staining based flow cytometric analysis (reference value: 95.3%); assay type: functional; settings: read-out: Activity
[14] = test system: NCI-H460; assay: Induction of apoptosis in human NCI-H460 cells assessed as early apoptotic cells at 4 uM by Annexin V/PI staining based flow cytometric analysis (reference value: […]); assay type: functional
[15] = test system: NCI-H460; assay: Induction of apoptosis in human NCI-H460 cells assessed as late apoptotic cells at 4 uM by Annexin V/PI staining based flow cytometric analysis (reference value: 1.17%); assay type: functional
[16] = test system: NCI-H460; assay: Induction of apoptosis in human NCI-H460 cells assessed as necrotic cells at 4 uM by Annexin V/PI staining based flow cytometric analysis (reference value: 2.75%); assay type: functional
[17] = test system: NCI-H460; assay: Induction of apoptosis in human NCI-H460 cells by Annexin V/PI staining based flow cytometric analysis; assay type: functional, cell-based
[18] = test system: NCI-H460; assay: Antitumor activity against human NCI-H460 cells xenografted in nude mouse assessed as inhibition of tumor mass at 2.5 mg/kg, ip administered every other day for 21 days measured every 3 days; assay type: functional
[19] = Toxicity in nude mouse xenografted with human NCI-H460 cells assessed as body weight loss at 2.5 to 5 mg/kg, ip administered every other day for 21 days; assay type: organism-based; settings: in vivo, 504 h
[20] = Toxicity in nude mouse xenografted with human NCI-H460 cells assessed as mortality at 5 mg/kg, ip administered every other day for 21 days; assay type: organism-based; settings: in vivo, 504 h
[21] = test system: NCI-H460; assay: Anti-OXPHOS activity in human NCI-H460 cells assessed as inhibition of oxygen consumption rate at 8 uM in presence of uncoupling agent, FCCP by seahorse XFe96 analyser based assay
[22] = test system: NCI-H460; assay: Antitumor activity against human NCI-H460 cells xenografted in nude mouse assessed as decrease in tumor volume at 2.5 mg/kg, ip administered every other day for 21 days measured every 3 days; assay type: functional, organism-based
[23] = test system: NCI-H460; assay: Inhibition of F0 subunit in F0F1 ATP synthase in human NCI-H460 cells assessed as inhibition of oxygen consumption rate at 1 uM by seahorse XFe96 analyser based assay; assay type: cell-based
[24] = test system: NCI-H460; assay: Antitumor activity against human NCI-H460 cells xenografted in nude mouse assessed as inhibition of tumor mass at 5 mg/kg, ip administered every other day for 21 days measured every 3 days; assay type: functional
[25] = Toxicity in nude mouse xenografted with human NCI-H460 cells assessed as body weight loss at 5 to 10 mg/kg, ip administered every other day for 21 days; assay type: organism-based; settings: in vivo, 504 h
[26] = Toxicity in nude mouse xenografted with human NCI-H460 cells assessed as mortality at 10 mg/kg, ip administered every other day for 21 days; assay type: organism-based; settings: in vivo, 504 h
[27] = test system: NCI-H460; assay: Antitumor activity against human NCI-H460 cells xenografted in nude mouse assessed as decrease in tumor volume at 5 mg/kg, ip administered every other day for 21 days measured every 3 days; assay type: functional, organism-based

## CC[C@H]1CCC[C@H](O[C@H]2CC[C@H](N(C)CCCCCC[n+]3ccccc3)[C@@H](C)O2)[C@@H](C)C(=O)C2=C[C@@H]3[C@@H](C=C[C@@H]4C[C@@H](O[C@@H]5O[C@@H](C)[C@H](OC)[C@@H](OC)[C@H]5OC)C[C@@H]34)[C@@H]2CC(=O)O1
[1]
  IC50: 4.3 µM
[2]
  IC50: 9.8 µM
[3]
  IC50: 22 µM
[4]
  IC50: 11.2 µM

## CC[C@H]1CCC[C@H](O[C@H]2CC[C@H](N(C)CCCCCC[P+](c3ccccc3)(c3ccccc3)c3ccccc3)[C@@H](C)O2)[C@@H](C)C(=O)C2=C[C@@H]3[C@@H](C=C[C@@H]4C[C@@H](O[C@@H]5O[C@@H](C)[C@H](OC)[C@@H](OC)[C@H]5OC)C[C@@H]34)[C@@H]2CC(=O)O1.[Br-]
[1]
  IC50: 2 µM
[2]
  IC50: 0.3 µM
[3]
  IC50: 1.6 µM
[4]
  IC50: 1.3 µM
[5]
  inhibition: Dose-dependent effect
[6]
  inhibition: 42%
[7]
  inhibition: inactive
[8]
  inhibition: Active
[9]
  viability at 2 µM: 74.8%
[10]
  Activity: 19.9%
[11]
  Activity: 3.91%
[12]
  Activity: 1.38%
[13]
  viability at 4 µM: 69.3%
[14]
  Activity: 22%
[15]
  Activity: 6.99%
[16]
  Activity: 1.69%
[17]
  Activity: Dose-dependent effect
[18]
  inhibition in vivo at 2.5 mg/kg: 14.6%
[19]
  Activity: Non-Toxic
[20]
  Activity: Toxic
[21]
  inhibition: inactive
[22]
  inhibition: Active

## CC[C@H]1CCC[C@H](OC(=O)C[n+]2cccc(C(N)=O)c2)[C@@H](C)C(=O)C2=C[C@@H]3[C@@H](C=C[C@@H]4C[C@@H](O[C@@H]5O[C@@H](C)[C@H](OC)[C@@H](OC)[C@H]5OC)C[C@@H]34)[C@@H]2CC(=O)O1
[1]
  IC50: > 100 µM

## CC[C@H]1/C=C/C=C/C[C@@H](C)[C@H](O)[C@@](C)(O)C(=O)[C@@H](C)[C@H](O)[C@@H](C)C(=O)[C@@H](C)[C@H](O)[C@@H](C)/C=C/C(=O)O[C@@H]2[C@H](C)[C@H](CC1)O[C@]1(CC[C@H](C)[C@H](C[C@@H](C)O)O1)[C@H]2C
[23]
  inhibition: Active

## CC[C@H]1CCC[C@H](OC(=O)CCC[n+]2cccc(C(N)=O)c2)[C@@H](C)C(=O)C2=C[C@@H]3[C@@H](C=C[C@@H]4C[C@@H](O[C@@H]5O[C@@H](C)[C@H](OC)[C@@H](OC)[C@H]5OC)C[C@@H]34)[C@@H]2CC(=O)O1
[1]
  IC50: > 100 µM

## CC[C@H]1CCC[C@H](O[C@H]2CC[C@H](N(C)CCC[n+]3cccc(C(N)=O)c3)[C@@H](C)O2)[C@@H](C)C(=O)C2=C[C@@H]3[C@@H](C=C[C@@H]4C[C@@H](O[C@@H]5O[C@@H](C)[C@H](OC)[C@@H](OC)[C@H]5OC)C[C@@H]34)[C@@H]2CC(=O)O1
[1]
  IC50: > 100 µM

## CC[C@H]1CCC[C@H](O[C@H]2CC[C@H](N(C)C)[C@@H](C)O2)[C@@H](C)C(=O)C2=C[C@@H]3[C@@H](C=C[C@@H]4C[C@@H](O[C@@H]5O[C@@H](C)[C@H](OC)[C@@H](OC)[C@H]5OC)C[C@@H]34)[C@@H]2CC(=O)O1 [SPINOSYN A]
[1]
  IC50: 17.9 µM
[2]
  IC50: 11.1 µM
[3]
  IC50: 67.5 µM
[4]
  IC50: 96.5 µM

## CC[C@H]1CCC[C@H](OC(=O)CCC[n+]2ccccc2)[C@@H](C)C(=O)C2=C[C@@H]3[C@@H](C=C[C@@H]4C[C@@H](O[C@@H]5O[C@@H](C)[C@H](OC)[C@@H](OC)[C@H]5OC)C[C@@H]34)[C@@H]2CC(=O)O1
[1]
  IC50: > 100 µM

## CC[C@H]1CCC[C@H](O[C@H]2CC[C@H](N(C)CCC[P+](c3ccccc3)(c3ccccc3)c3ccccc3)[C@@H](C)O2)[C@@H](C)C(=O)C2=C[C@@H]3[C@@H](C=C[C@@H]4C[C@@H](O[C@@H]5O[C@@H](C)[C@H](OC)[C@@H](OC)[C@H]5OC)C[C@@H]34)[C@@H]2CC(=O)O1
[1]
  IC50: 4.1 µM
[2]
  IC50: 0.1 µM
[3]
  IC50: 2.7 µM
[4]
  IC50: 1.3 µM

## CC[C@H]1CCC[C@H](O[C@H]2CC[C@H](N(C)CCCCCC[n+]3cccc(C(N)=O)c3)[C@@H](C)O2)[C@@H](C)C(=O)C2=C[C@@H]3[C@@H](C=C[C@@H]4C[C@@H](O[C@@H]5O[C@@H](C)[C@H](OC)[C@@H](OC)[C@H]5OC)C[C@@H]34)[C@@H]2CC(=O)O1
[1]
  IC50: 30.5 µM

## CC[C@H]1CCC[C@H](OC(=O)CCC[P+](c2ccccc2)(c2ccccc2)c2ccccc2)[C@@H](C)C(=O)C2=C[C@@H]3[C@@H](C=C[C@@H]4C[C@@H](O[C@@H]5O[C@@H](C)[C@H](OC)[C@@H](OC)[C@H]5OC)C[C@@H]34)[C@@H]2CC(=O)O1
[1]
  IC50: 3.1 µM
[2]
  IC50: 0.8 µM
[3]
  IC50: 1.5 µM
[4]
  IC50: 2.7 µM

## CC[C@H]1CCC[C@H](OC(=O)C[n+]2ccccc2)[C@@H](C)C(=O)C2=C[C@@H]3[C@@H](C=C[C@@H]4C[C@@H](O[C@@H]5O[C@@H](C)[C@H](OC)[C@@H](OC)[C@H]5OC)C[C@@H]34)[C@@H]2CC(=O)O1
[1]
  IC50: > 100 µM

## CC[C@H]1CCC[C@H](O[C@H]2CC[C@H](N(C)CCC[n+]3ccccc3)[C@@H](C)O2)[C@@H](C)C(=O)C2=C[C@@H]3[C@@H](C=C[C@@H]4C[C@@H](O[C@@H]5O[C@@H](C)[C@H](OC)[C@@H](OC)[C@H]5OC)C[C@@H]34)[C@@H]2CC(=O)O1
[1]
  IC50: 23.7 µM

## CC[C@H]1CCC[C@H](O[C@H]2CC[C@H](N(C)CCCCCC[n+]3ccc4ccccc4c3)[C@@H](C)O2)[C@@H](C)C(=O)C2=C[C@@H]3[C@@H](C=C[C@@H]4C[C@@H](O[C@@H]5O[C@@H](C)[C@H](OC)[C@@H](OC)[C@H]5OC)C[C@@H]34)[C@@H]2CC(=O)O1.[Br-]
[1]
  IC50: 8.9 µM
[2]
  IC50: 2.8 µM
[3]
  IC50: 4.6 µM
[4]
  IC50: 2.5 µM
[5]
  inhibition: Dose-dependent effect
[6]
  inhibition: 41%
[7]
  inhibition: inactive
[8]
  inhibition: Active
[9]
  viability at 2 µM: 84.4%
[10]
  Activity: 9.36%
[11]
  Activity: 5.01%
[12]
  Activity: 1.21%
[13]
  viability at 4 µM: 70.7%
[14]
  Activity: 20.7%
[15]
  Activity: 6.98%
[16]
  Activity: 1.58%
[17]
  Activity: Dose-dependent effect
[24]
  inhibition in vivo at 5 mg/kg: 8.8%
[25]
  Activity: Non-Toxic
[26]
  Activity: Toxic
[21]
  inhibition: inactive
[27]
  inhibition: Active
